Experimental findings from US11000033B2, “Ketone or oxime compound, and herbicide” (NISSAN CHEMICAL CORPORATION, priority 2014, dated 2021) are described below.

Holding throughout (format): in vivo
In series [1] the test system is Echinochloa oryzacola Vasing. Put plainly: Test Example 2: herbicidal activity, application during weed generation in submerged conditions (symbol A). Conditions: Table 23; application herbicide amount 320 g/ha; grade 0-5 by criteria of Test Example 1. An outline of the steps:
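Each pot contained alluvial soil under 4 cm of water with seeds of all three weeds sown together. Following growth at 25° C. to 30° C. to the one- to two-leaf stage, the floodwater received diluted emulsion at a predetermined amount; visual assessment followed at 3 weeks.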

Another series deals with transplanted rice plant. Put plainly: Test Example 1: effect on crop, application before weed generation in submerged conditions (symbol a). Conditions: application herbicide amount 320 g/ha. An outline of the steps: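 Rice at 2.5 leaf stage transplanted into submerged soil (4 cm depth) sown with three weed species; herbicide applied before weed emergence.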
For series [2], the system named is Avena fatua. Put plainly: Test Example 4: herbicidal effect by soil treatment (symbol I). Conditions: application herbicide amount 320 g/ha. An outline of the steps:
(§1)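 Seeds were sown in sterilized diluvial soil, covered with about 1.5 cm of soil, and the soil surface was sprayed with a water-diluted emulsion of the compound at a predetermined rate. Plants grew in a greenhouse at 25° C. to 30° C.; effects were scored visually 3 weeks after application.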

The test system of the next series is Digitaria ciliaris. Put plainly: Test Example 4: herbicidal effect by soil treatment (symbol F). Conditions: application herbicide amount 320 g/ha. An outline of the steps: as §1
The subject of a further series is Leptochloa chinensis. Put plainly: Test Example 3: herbicidal effect by foliage application, Wagner pot (symbol D). Conditions: application herbicide amount 320 g/ha. The procedure, abridged:
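Seeds sown in alluvial soil kept under 0.1–0.5 cm water, greenhouse 25–30 °C; 14 d growth. Leaves treated by small sprayer with water-diluted emulsion at a predetermined rate. Effect graded by set scale, 3 weeks.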

The next series concerns Chenopodium album. Put plainly: Test Example 5: herbicidal effect by foliage application, plastic box (symbol O). The following applies: 320 g/ha, 3 weeks after application. The procedure, abridged:
(§2)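 Greenhouse foliar test: seedlings at 14 days, grown 25° C. to 30° C. in sterilized diluvial soil; compound applied as an aqueous dilution of an emulsion; response read 3 weeks after spraying.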

The test system of the next series is corn. Put plainly: Test Example 5: effect on crop by foliage application, plastic box (symbol c). The following applies: 320 g/ha, 3 weeks after application. An outline of the steps: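 A greenhouse held between 25° C. and 30° C. was used to grow plants sown spot-wise, beneath ~1.5 cm of soil, in boxes of sterilized diluvial soil.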
For another series, the system named is Lolium multiflorum Lam. Put plainly: Test Example 4: herbicidal effect by soil treatment (symbol K). The following applies: application herbicide amount 320 g/ha. The procedure, abridged:
as §1

The subject of series [3] is Veronica persica. Put plainly: Test Example 4: herbicidal effect by soil treatment (symbol R). Conditions: application herbicide amount 320 g/ha. An outline of the steps:
as §1

The subject of series [4] is Avena fatua. Put plainly: Test Example 5: herbicidal effect by foliage application, plastic box (symbol I). Conditions: 320 g/ha, 3 weeks after application. The procedure, abridged:
as §2

Series [5] deals with Veronica persica. Put plainly: Test Example 5: herbicidal effect by foliage application, plastic box (symbol R). The following applies: 320 g/ha, 3 weeks after application. The procedure, abridged: as §2
For a further series, the system named is Setaria viridis. Put plainly: Test Example 5: herbicidal effect by foliage application, plastic box (symbol G). The following applies: 320 g/ha, 3 weeks after application. An outline of the steps:
as §2

Series [6] deals with Echinochloa crus-galli var. crus-galli. Put plainly: Test Example 4: herbicidal effect by soil treatment (symbol H). The following applies: application herbicide amount 320 g/ha. An outline of the steps: as §1

Regarding `CC#Cc1cc(C)c(C2=C(O)CC(CC(C)=O)C2=O)c(C)c1` (stereo not shown) [7-010], the “Herbicidal effect grade, A: Echinochloa oryzacola Vasing.” value in series [1] is 5 (Herbicidal ratio of 90% or more (almost completely withered)). For the same molecule, the “Effect grade on crop, a: transplanted rice plant” value with transplanted rice plant is recorded as 5 (Herbicidal ratio of 90% or more (almost completely withered)). In addition, the “Herbicidal effect grade, I: Avena fatua” value in the series with Avena fatua [2] is 2 (Herbicidal ratio of 20% or higher and lower than 40%). Further, the “Herbicidal effect grade, F: Digitaria ciliaris” value in the series on Digitaria ciliaris is recorded as 5 (Herbicidal ratio of 90% or more (almost completely withered)). The “herbicidal effect on D (Leptochloa chinensis), grade 0-5” value in the series with Leptochloa chinensis is 5 (Herbicidal ratio of 90% or more (almost completely withered)). Further, the “O: Chenopodium album, herbicidal effect (criteria of Test Example 1)” value in the series on Chenopodium album is 2 (Herbicidal ratio of 20% or higher and lower than 40%). Besides, the “c: corn, effect on crop (criteria of Test Example 1)” value in the series with corn is given as 5 (Herbicidal ratio of 90% or more (almost completely withered)). Further, the “Herbicidal effect grade, K: Lolium multiflorum Lam.” value with Lolium multiflorum Lam. was 5 (Herbicidal ratio of 90% or more (almost completely withered)). Also, the “Herbicidal effect grade, R: Veronica persica” value with Veronica persica [3] is 3 (Herbicidal ratio of 40% or higher and lower than 70%). The “I: Avena fatua, herbicidal effect (criteria of Test Example 1)” value in the series with Avena fatua [4] is 4 (Herbicidal ratio of 70% or higher and lower than 90%). The “R: Veronica persica, herbicidal effect (criteria of Test Example 1)” value in the series on Veronica persica [5] was 4 (Herbicidal ratio of 70% or higher and lower than 90%). The “G: Setaria viridis, herbicidal effect (criteria of Test Example 1)” value in the series on Setaria viridis is reported as 5 (Herbicidal ratio of 90% or more (almost completely withered)). Also, the “Herbicidal effect grade, H: Echinochloa crus-galli var. crus-galli” value in [6] was 5 (Herbicidal ratio of 90% or more (almost completely withered)).

Take `CON=C(C)CC1CC(OC(=O)N2CCOCC2)=C(c2c(C)cc(-c3ccc(Cl)cc3)cc2C)C1=O` (mixture of isomers) [6-062]: the “Herbicidal effect grade, A: Echinochloa oryzacola Vasing.” value in series [1] is listed as 5 (Herbicidal ratio of 90% or more (almost completely withered)). Besides, the “Effect grade on crop, a: transplanted rice plant” value with transplanted rice plant is reported as 5 (Herbicidal ratio of 90% or more (almost completely withered)). In addition, the “I: Avena fatua, herbicidal effect grade” value with Avena fatua [2] is 0 (Herbicidal ratio of 5% or lower (almost no effect)). For the same molecule, the “F: Digitaria ciliaris, herbicidal effect grade” value in the series with Digitaria ciliaris was 3 (Herbicidal ratio of 40% or higher and lower than 70%). In addition, in the series with Leptochloa chinensis, the “herbicidal effect on D (Leptochloa chinensis), grade 0-5” value is 5 (Herbicidal ratio of 90% or more (almost completely withered)). In addition, the “c: corn, effect on crop (criteria of Test Example 1)” value in the series with corn was 5 (Herbicidal ratio of 90% or more (almost completely withered)). Besides, in the series on Lolium multiflorum Lam., the “K: Lolium multiflorum Lam., herbicidal effect grade” value was 0 (Herbicidal ratio of 5% or lower (almost no effect)). In addition, in the series with Veronica persica [3], the “R: Veronica persica, herbicidal effect grade” value was 3 (Herbicidal ratio of 40% or higher and lower than 70%). Also, the “I: Avena fatua, herbicidal effect (criteria of Test Example 1)” value in the series with Avena fatua [4] was 5 (Herbicidal ratio of 90% or more (almost completely withered)). The “R: Veronica persica, herbicidal effect (criteria of Test Example 1)” value with Veronica persica [5] is on record as 5 (Herbicidal ratio of 90% or more (almost completely withered)). The “G: Setaria viridis, herbicidal effect (criteria of Test Example 1)” value with Setaria viridis is 5 (Herbicidal ratio of 90% or more (almost completely withered)). In addition, the “H: Echinochloa crus-galli var. crus-galli, herbicidal effect grade” value in series [6] was 5 (Herbicidal ratio of 90% or more (almost completely withered)).
